# Source: PubChem BioAssay (NCI)
#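 Exposure lasted 48 hours, with cells grown in 96-well plates and compounds tested at five concentrations. TGI: concentration producing complete growth inhibition.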
# Tested on: 786-0 renal
# Assay: NCI-60 cell line screen, 48 h
row,Structure (SMILES),TGI [µM]
1,COc1ccc(Cc2c(N)[nH]c(=O)[nH]c2=O)cc1,> 100
2,O=C1c2c(O)ccc(O)c2C(=O)c2c(NCCNC(=O)C(O)C(O)C(O)C(O)CO)ccc(NCCNC(=O)C(O)C(O)C(O)C(O)CO)c21 (stereo not given),0.0531
3,CN1C(=O)C(/C=N/NC(=O)c2cccnc2)C(N)N(C)C1=O (stereo not given),> 100
4,OCc1cc2c([nH]c3ccccc32)c(C(O)CO)n1 (stereo not given),> 100
5,CC1=C(C)C(=O)C(C2=C(C3=CC(=O)C(C)=C(C)C3=O)C(=O)C(C)=C(C)C2=O)=CC1=O,> 49.4

# Tested on: A498 renal
# Assay: NCI-60 cell line screen, 48 h
row,Structure (SMILES),TGI [µM]
1,COc1ccc(Cc2c(N)[nH]c(=O)[nH]c2=O)cc1,> 100
2,OCc1cc2c([nH]c3ccccc32)c(C(O)CO)n1 (stereo not given),> 100
3,CC1=C(C)C(=O)C(C2=C(C3=CC(=O)C(C)=C(C)C3=O)C(=O)C(C)=C(C)C2=O)=CC1=O,21.5

# Tested on: A549 NSCLC
# Assay: NCI-60 cell line screen, 48 h
row,Structure (SMILES),TGI [µM]
1,COc1ccc(Cc2c(N)[nH]c(=O)[nH]c2=O)cc1,> 100
2,O=C1c2c(O)ccc(O)c2C(=O)c2c(NCCNC(=O)C(O)C(O)C(O)C(O)CO)ccc(NCCNC(=O)C(O)C(O)C(O)C(O)CO)c21 (stereo not given),1.53
3,CN1C(=O)C(/C=N/NC(=O)c2cccnc2)C(N)N(C)C1=O (stereo not given),> 100
4,OCc1cc2c([nH]c3ccccc32)c(C(O)CO)n1 (stereo not given),> 100
5,CC1=C(C)C(=O)C(C2=C(C3=CC(=O)C(C)=C(C)C3=O)C(=O)C(C)=C(C)C2=O)=CC1=O,> 84.4

# Tested on: ACHN renal
# Assay: NCI-60 cell line screen, 48 h
row,Structure (SMILES),TGI [µM]
1,COc1ccc(Cc2c(N)[nH]c(=O)[nH]c2=O)cc1,> 100
2,O=C1c2c(O)ccc(O)c2C(=O)c2c(NCCNC(=O)C(O)C(O)C(O)C(O)CO)ccc(NCCNC(=O)C(O)C(O)C(O)C(O)CO)c21 (stereo not given),0.101
3,CN1C(=O)C(/C=N/NC(=O)c2cccnc2)C(N)N(C)C1=O (stereo not given),> 100
4,OCc1cc2c([nH]c3ccccc32)c(C(O)CO)n1 (stereo not given),> 100
5,CC1=C(C)C(=O)C(C2=C(C3=CC(=O)C(C)=C(C)C3=O)C(=O)C(C)=C(C)C2=O)=CC1=O,18.3

# Tested on: BT-549 breast
# Assay: NCI-60 cell line screen, 48 h
row,Structure (SMILES),TGI [µM]
1,COc1ccc(Cc2c(N)[nH]c(=O)[nH]c2=O)cc1,> 100
2,O=C1c2c(O)ccc(O)c2C(=O)c2c(NCCNC(=O)C(O)C(O)C(O)C(O)CO)ccc(NCCNC(=O)C(O)C(O)C(O)C(O)CO)c21 (stereo not given),2.36
3,CN1C(=O)C(/C=N/NC(=O)c2cccnc2)C(N)N(C)C1=O (stereo not given),> 100
4,OCc1cc2c([nH]c3ccccc32)c(C(O)CO)n1 (stereo not given),> 100
5,CC1=C(C)C(=O)C(C2=C(C3=CC(=O)C(C)=C(C)C3=O)C(=O)C(C)=C(C)C2=O)=CC1=O,21.6

# Tested on: CAKI-1 renal
# Assay: NCI-60 cell line screen, 48 h
row,Structure (SMILES),TGI [µM]
1,COc1ccc(Cc2c(N)[nH]c(=O)[nH]c2=O)cc1,> 100
2,CN1C(=O)C(/C=N/NC(=O)c2cccnc2)C(N)N(C)C1=O (stereo not given),> 100
3,OCc1cc2c([nH]c3ccccc32)c(C(O)CO)n1 (stereo not given),> 100
4,CC1=C(C)C(=O)C(C2=C(C3=CC(=O)C(C)=C(C)C3=O)C(=O)C(C)=C(C)C2=O)=CC1=O,8.87

# Tested on: CCRF-CEM leukemia
# Assay: NCI-60 cell line screen, 48 h
row,Structure (SMILES),TGI [µM]
1,CN1C(=O)C(/C=N/NC(=O)c2cccnc2)C(N)N(C)C1=O (stereo not given),> 100
2,OCc1cc2c([nH]c3ccccc32)c(C(O)CO)n1 (stereo not given),> 100
3,CC1=C(C)C(=O)C(C2=C(C3=CC(=O)C(C)=C(C)C3=O)C(=O)C(C)=C(C)C2=O)=CC1=O,> 100

# Tested on: COLO 205 colon
# Assay: NCI-60 cell line screen, 48 h
row,Structure (SMILES),TGI [µM]
1,COc1ccc(Cc2c(N)[nH]c(=O)[nH]c2=O)cc1,> 100
2,O=C1c2c(O)ccc(O)c2C(=O)c2c(NCCNC(=O)C(O)C(O)C(O)C(O)CO)ccc(NCCNC(=O)C(O)C(O)C(O)C(O)CO)c21 (stereo not given),0.578
3,CN1C(=O)C(/C=N/NC(=O)c2cccnc2)C(N)N(C)C1=O (stereo not given),> 100
4,OCc1cc2c([nH]c3ccccc32)c(C(O)CO)n1 (stereo not given),> 100
5,CC1=C(C)C(=O)C(C2=C(C3=CC(=O)C(C)=C(C)C3=O)C(=O)C(C)=C(C)C2=O)=CC1=O,8.07

# Tested on: DU-145 prostate
# Assay: NCI-60 cell line screen, 48 h
row,Structure (SMILES),TGI [µM]
1,O=C1c2c(O)ccc(O)c2C(=O)c2c(NCCNC(=O)C(O)C(O)C(O)C(O)CO)ccc(NCCNC(=O)C(O)C(O)C(O)C(O)CO)c21 (stereo not given),0.254
2,CN1C(=O)C(/C=N/NC(=O)c2cccnc2)C(N)N(C)C1=O (stereo not given),> 100
3,OCc1cc2c([nH]c3ccccc32)c(C(O)CO)n1 (stereo not given),> 100
4,CC1=C(C)C(=O)C(C2=C(C3=CC(=O)C(C)=C(C)C3=O)C(=O)C(C)=C(C)C2=O)=CC1=O,30

# Tested on: EKVX NSCLC
# Assay: NCI-60 cell line screen, 48 h
row,Structure (SMILES),TGI [µM]
1,COc1ccc(Cc2c(N)[nH]c(=O)[nH]c2=O)cc1,> 100
2,O=C1c2c(O)ccc(O)c2C(=O)c2c(NCCNC(=O)C(O)C(O)C(O)C(O)CO)ccc(NCCNC(=O)C(O)C(O)C(O)C(O)CO)c21 (stereo not given),1.42
3,CN1C(=O)C(/C=N/NC(=O)c2cccnc2)C(N)N(C)C1=O (stereo not given),> 100
4,OCc1cc2c([nH]c3ccccc32)c(C(O)CO)n1 (stereo not given),> 100
5,CC1=C(C)C(=O)C(C2=C(C3=CC(=O)C(C)=C(C)C3=O)C(=O)C(C)=C(C)C2=O)=CC1=O,> 70

# Tested on: HCC-2998 colon
# Assay: NCI-60 cell line screen, 48 h
row,Structure (SMILES),TGI [µM]
1,COc1ccc(Cc2c(N)[nH]c(=O)[nH]c2=O)cc1,> 100
2,O=C1c2c(O)ccc(O)c2C(=O)c2c(NCCNC(=O)C(O)C(O)C(O)C(O)CO)ccc(NCCNC(=O)C(O)C(O)C(O)C(O)CO)c21 (stereo not given),0.483
3,CN1C(=O)C(/C=N/NC(=O)c2cccnc2)C(N)N(C)C1=O (stereo not given),> 100
4,OCc1cc2c([nH]c3ccccc32)c(C(O)CO)n1 (stereo not given),> 100
5,CC1=C(C)C(=O)C(C2=C(C3=CC(=O)C(C)=C(C)C3=O)C(=O)C(C)=C(C)C2=O)=CC1=O,28.6

# Tested on: HCT-116 colon
# Assay: NCI-60 cell line screen, 48 h
row,Structure (SMILES),TGI [µM]
1,COc1ccc(Cc2c(N)[nH]c(=O)[nH]c2=O)cc1,> 100
2,O=C1c2c(O)ccc(O)c2C(=O)c2c(NCCNC(=O)C(O)C(O)C(O)C(O)CO)ccc(NCCNC(=O)C(O)C(O)C(O)C(O)CO)c21 (stereo not given),0.197
3,CN1C(=O)C(/C=N/NC(=O)c2cccnc2)C(N)N(C)C1=O (stereo not given),> 100
4,OCc1cc2c([nH]c3ccccc32)c(C(O)CO)n1 (stereo not given),> 100
5,CC1=C(C)C(=O)C(C2=C(C3=CC(=O)C(C)=C(C)C3=O)C(=O)C(C)=C(C)C2=O)=CC1=O,> 100

# Tested on: HCT-15 colon
# Assay: NCI-60 cell line screen, 48 h
row,Structure (SMILES),TGI [µM]
1,COc1ccc(Cc2c(N)[nH]c(=O)[nH]c2=O)cc1,> 100
2,O=C1c2c(O)ccc(O)c2C(=O)c2c(NCCNC(=O)C(O)C(O)C(O)C(O)CO)ccc(NCCNC(=O)C(O)C(O)C(O)C(O)CO)c21 (stereo not given),1.04
3,CN1C(=O)C(/C=N/NC(=O)c2cccnc2)C(N)N(C)C1=O (stereo not given),> 100
4,OCc1cc2c([nH]c3ccccc32)c(C(O)CO)n1 (stereo not given),> 100
5,CC1=C(C)C(=O)C(C2=C(C3=CC(=O)C(C)=C(C)C3=O)C(=O)C(C)=C(C)C2=O)=CC1=O,> 61.8

# Tested on: HL-60(TB) leukemia
# Assay: NCI-60 cell line screen, 48 h
row,Structure (SMILES),TGI [µM]
1,O=C1c2c(O)ccc(O)c2C(=O)c2c(NCCNC(=O)C(O)C(O)C(O)C(O)CO)ccc(NCCNC(=O)C(O)C(O)C(O)C(O)CO)c21 (stereo not given),0.0149
2,OCc1cc2c([nH]c3ccccc32)c(C(O)CO)n1 (stereo not given),> 100
3,CC1=C(C)C(=O)C(C2=C(C3=CC(=O)C(C)=C(C)C3=O)C(=O)C(C)=C(C)C2=O)=CC1=O,> 100

# Tested on: HOP-62 NSCLC
# Assay: NCI-60 cell line screen, 48 h
row,Structure (SMILES),TGI [µM]
1,COc1ccc(Cc2c(N)[nH]c(=O)[nH]c2=O)cc1,> 100
2,O=C1c2c(O)ccc(O)c2C(=O)c2c(NCCNC(=O)C(O)C(O)C(O)C(O)CO)ccc(NCCNC(=O)C(O)C(O)C(O)C(O)CO)c21 (stereo not given),1.13
3,CN1C(=O)C(/C=N/NC(=O)c2cccnc2)C(N)N(C)C1=O (stereo not given),> 100
